Laboratory results from the supplement of paper PMC12646585.

System: TK6
Test: relative viability (MTT, 20-24 h post-exposure) vs solvent control; higher = less cytotoxic
Conditions: exposure time: 4 h (S9 compounds: 3 h + 4 h recovery)
Method: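 Human TK6 lymphoblastoid cells were exposed for 4 h to three concentrations of each compound at four ring-trial labs. Compounds P, Q, R and CC were given for 3 h with rat liver S9 plus 4 h recovery. Relative survival was measured by MTT assay 20-24 h after exposure, as % viability relative to solvent control (mean with SD), in the Result 1 round with preselected concentrations.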

CN[C@@H]1C[C@H]2O[C@@](C)([C@@H]1OC)n1c3ccccc3c3c4c(c5c6ccccc6n2c5c31)C(=O)NC4 [Staurosporine]
relative viability [%]
Conditions	batch: 3, lab: Lab 1	batch: 3, lab: Lab 2	batch: 3, lab: Lab 3	batch: 3, lab: Lab 4
concentration: 3nm	104	114	130	97.4
concentration: 10nm	103	99.1	111	91.4
concentration: 30nm	97	69.7	69.7	73.9

CCOS(C)(=O)=O [EMS (Ethyl methanesulfonate)]
relative viability [%]
Conditions	batch: 2, lab: Lab 1	batch: 2, lab: Lab 2	batch: 2, lab: Lab 3	batch: 2, lab: Lab 4
concentration: 0.22mM	95.4	105	98.2	103
concentration: 0.67mM	91.7	98.1	96.6	92.6
concentration: 2mM	85.2	84.6	67.7	80.4

OC[C@@H](O)[C@@H](O)[C@H](O)[C@H](O)CO [D-Mannitol]
relative viability [%]
Conditions	batch: 1, lab: Lab 1	batch: 1, lab: Lab 2	batch: 1, lab: Lab 3	batch: 1, lab: Lab 4
concentration: 0.11mM	90	97	145	110
concentration: 0.33mM	98.7	104	137	107
concentration: 1mM	103	104	139.3	107

CCN(N=O)C(N)=O [ENU (N-Nitroso-N-ethylurea)]
relative viability [%]
Conditions	batch: 2, lab: Lab 1	batch: 2, lab: Lab 2	batch: 2, lab: Lab 3	batch: 2, lab: Lab 4
concentration: 0.056mM	97.9	87.58	99.1	101
concentration: 0.167mM	92.2	104	93.5	89.3
concentration: 0.5mM	70.5	95.6	69.3	76.1

O=[N+]([O-])c1ccc(O)c([N+](=O)[O-])c1 [2,4-Dinitrophenol]
relative viability [%]
Conditions	batch: 3, lab: Lab 1	batch: 3, lab: Lab 2	batch: 3, lab: Lab 3	batch: 3, lab: Lab 4
concentration: 0.11mM	92.2	98.2	71.1	97.7
concentration: 0.33mM	84.7	85	67.4	98.6
concentration: 1mM	58.6	37.2	63.9	99.4

Cc1c(N)nc(C(CC(N)=O)NCC(N)C(N)=O)nc1C(=O)NC(C(=O)NC(C)C(O)C(C)C(=O)NC(C(=O)NCCc1nc(-c2nc(C(=O)NCCC[S+](C)C)cs2)cs1)C(C)O)C(O[C@@H]1O[C@@H](CO)[C@@H](O)[C@H](O)[C@@H]1O[C@H]1O[C@H](CO)[C@@H](O)[C@H](OC(N)=O)[C@@H]1O)c1cnc[nH]1.O=S(=O)([O-])O (some centres undefined) [Bleomycin (sulfate)]
Conditions	relative viability [%]
concentration: 5ug/mL, batch: 2, lab: Lab 1	80.5
concentration: 5ug/mL, batch: 2, lab: Lab 2	53.4
concentration: 5ug/mL, batch: 2, lab: Lab 3	51
concentration: 5ug/mL, batch: 2, lab: Lab 4	56.4
concentration: 5ug/mL, batch: 3, lab: Lab 1	78
concentration: 5ug/mL, batch: 3, lab: Lab 2	66
concentration: 5ug/mL, batch: 3, lab: Lab 3	49.7
concentration: 5ug/mL, batch: 3, lab: Lab 4	54.6
concentration: 10ug/mL, batch: 1, lab: Lab 1	41.8
concentration: 10ug/mL, batch: 1, lab: Lab 2	59.6
concentration: 10ug/mL, batch: 1, lab: Lab 3	53
concentration: 10ug/mL, batch: 1, lab: Lab 4	50.6

c1ccc2c(c1)cc1ccc3cccc4ccc2c1c34 [Benzo[a]pyrene]
concentration: 10ug/mL
Conditions	relative viability [%]
batch: 4, lab: Lab 1	67.8
batch: 4, lab: Lab 2	35.7
batch: 4, lab: Lab 3	66.3
batch: 4, lab: Lab 4	75

CC1(C)S[C@@H]2[C@H](NC(=O)[C@H](N)c3ccccc3)C(=O)N2[C@H]1C(=O)O [Ampicillin]
relative viability [%]
Conditions	batch: 1, lab: Lab 1	batch: 1, lab: Lab 2	batch: 1, lab: Lab 3	batch: 1, lab: Lab 4
concentration: 0.11mM	102	104	115	127
concentration: 0.33mM	94.9	115	123	126
concentration: 1mM	99.9	98.3	121	112

O=C(O)CCCc1ccc(N(CCCl)CCCl)cc1 [Chlorambucil]
relative viability [%]
Conditions	batch: 3, lab: Lab 1	batch: 3, lab: Lab 2	batch: 3, lab: Lab 3	batch: 3, lab: Lab 4
concentration: 0.44uM	95.2	84.9	80.8	97.2
concentration: 1.33uM	89.6	95.9	74.1	92.3
concentration: 4uM	78.9	71.7	67.2	75.3

Nc1ccc2cc3ccccc3cc2c1 [2-Aminoanthracene]
relative viability [%]
Conditions	batch: 4, lab: Lab 1	batch: 4, lab: Lab 2	batch: 4, lab: Lab 3	batch: 4, lab: Lab 4
concentration: 0.22ug/mL	95.8	97.3	102	96.3
concentration: 0.67ug/mL	94.8	87.8	95.5	93.5
concentration: 2ug/mL	47	16.8	23.1	9.75

Cn1c(=O)c2c(ncn2C)n(C)c1=O [Caffeine]
concentration: 2mM
Conditions	relative viability [%]
batch: 1, lab: Lab 1	94.7
batch: 1, lab: Lab 2	86.4
batch: 1, lab: Lab 3	108
batch: 1, lab: Lab 4	98.2
batch: 2, lab: Lab 1	96.7
batch: 2, lab: Lab 2	80.1
batch: 2, lab: Lab 3	88.9
batch: 2, lab: Lab 4	100
batch: 3, lab: Lab 1	96.4
batch: 3, lab: Lab 2	92.5
batch: 3, lab: Lab 3	107
batch: 3, lab: Lab 4	92.6

CCC1(c2ccccc2)C(=O)N=C([O-])NC1=O.[Na+] (centres undefined) [Phenobarbital sodium]
relative viability [%]
Conditions	batch: 4, lab: Lab 1	batch: 4, lab: Lab 2	batch: 4, lab: Lab 3	batch: 4, lab: Lab 4
concentration: 0.11mM	98.3	85.5	149	95.2
concentration: 0.33mM	95.6	84.2	119	96.8
concentration: 1mM	95.7	82.3	116	99.5

C[C@@H]1C[C@H]2[C@@H]3CCC4=CC(=O)C=C[C@]4(C)[C@@]3(F)[C@@H](O)C[C@]2(C)[C@@]1(O)C(=O)CO [Dexamethasone]
relative viability [%]
Conditions	batch: 3, lab: Lab 1	batch: 3, lab: Lab 2	batch: 3, lab: Lab 3	batch: 3, lab: Lab 4
concentration: 0.11mM	105	103	127	112
concentration: 0.33mM	101	97.9	142	111
concentration: 1mM	86.6	86.4	143	92.2

O.O=P1(N(CCCl)CCCl)NCCCO1 (centres undefined) [Cyclophosphamide]
relative viability [%]
Conditions	batch: 4, lab: Lab 1	batch: 4, lab: Lab 2	batch: 4, lab: Lab 3	batch: 4, lab: Lab 4
concentration: 2.22uM	103	94.2	157	80.3
concentration: 6.67uM	96.49	69	107	81.7
concentration: 20uM	90.45	47.2	73.4	58.4

C[C@@H]1C[C@@H]([C@H](O)CC2CC(=O)NC(=O)C2)C(=O)[C@@H](C)C1 [Cycloheximide]
relative viability [%]
Conditions	batch: 1, lab: Lab 1	batch: 1, lab: Lab 2	batch: 1, lab: Lab 3	batch: 1, lab: Lab 4
concentration: 1.11uM	89.7	85.7	94.1	86.8
concentration: 3.33uM	64	65.6	72.2	69.7
concentration: 10uM	49.4	46.1	41.3	57.4

CCN(CC)CCNC(=O)c1c(C)[nH]c(/C=C2\C(=O)Nc3ccc(F)cc32)c1C.O=C(O)C[C@H](O)C(=O)O [Sunitinib malate]
relative viability [%]
Conditions	batch: 2, lab: Lab 1	batch: 2, lab: Lab 2	batch: 2, lab: Lab 3	batch: 2, lab: Lab 4
concentration: 2.22uM	103	77.8	91.3	99.4
concentration: 6.67uM	90.4	64.7	69	86.4
concentration: 20uM	64.6	28.5	37	40.8
